Assay results from ChEMBL document CHEMBL1131794, “The synthesis and evaluation of 6-alkylidene-2'beta-substituted penam sulfones as beta-lactamase inhibitors” (Bioorg Med Chem Lett, 1999).

Key:
Beta-lactamase TEM = Beta-lactamase TEM (Escherichia coli, UniProt P62593); experiment: Inhibitory activity against serine Beta-lactamase TEM derived from […]; type: single protein
Beta-lactamase [1] = biological target: T1, Beta-lactamase (Staphylococcus aureus, UniProt P00807); experiment: Inhibitory activity against serine Beta-lactamase derived from Staphylococcus aureus
T1 sequence (P00807 whole entry): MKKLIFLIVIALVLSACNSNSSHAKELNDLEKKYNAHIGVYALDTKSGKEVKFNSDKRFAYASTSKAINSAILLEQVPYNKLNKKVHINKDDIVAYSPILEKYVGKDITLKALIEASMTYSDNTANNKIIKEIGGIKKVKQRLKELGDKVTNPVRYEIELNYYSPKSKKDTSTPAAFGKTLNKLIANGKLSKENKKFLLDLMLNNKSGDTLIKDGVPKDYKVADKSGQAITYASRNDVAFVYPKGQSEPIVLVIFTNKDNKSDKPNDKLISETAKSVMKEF

Beta-lactamase [2] = biological target: T1, Beta-lactamase; experiment: Inhibitory activity against serine beta-lactamase, PC1 (class A) derived from Staphylococcus aureus
Enterobacter cloacae [3] = experiment: In vitro synergistic activity against Enterobacter cloacae SC12629 (AmpC inducible); type: functional; note: test concentration or dose not given here
Escherichia coli [4] = experiment: In vitro synergistic activity against Escherichia coli C600N + (MIR-1); type: functional
Escherichia coli [5] = experiment: In vitro synergistic activity against Escherichia coli GC6267 clinical isolate; type: functional
Escherichia coli [6] = experiment: In vitro synergistic activity against Escherichia coli C600N + (L1); type: functional
Escherichia coli [7] = experiment: In vitro synergistic activity against Escherichia coli GC 6266 clinical isolate; type: functional
Escherichia coli [8] = experiment: In vitro synergistic activity against Escherichia coli C600N + (P99); type: functional
Klebsiella pneumoniae [9] = experiment: In vitro synergistic activity against Klebsiella pneumoniae KC2 (TEM-10); type: functional
Klebsiella aerogenes = experiment: In vitro synergistic activity against Enterobacter aerogenes GC 6268 clinical isolate; type: functional; note: test concentration or dose not given here
Enterobacter cloacae [10] = experiment: In vitro synergistic activity against Enterobacter cloacae (Imi-1+AmpC); type: functional
Escherichia coli [11] = experiment: In vitro synergistic activity against Escherichia coli ATCC 25922 (no beta-lactamase); type: functional; note: test concentration or dose not given here
Escherichia coli [12] = experiment: In vitro synergistic activity against Escherichia coli C600N + (Imi-1); type: functional
[13] = tested on: Stenotrophomonas maltophilia; experiment: In vitro synergistic activity against Stenotrophomonas maltophilia 1712(L1); type: functional; note: test concentration or dose not given here
Escherichia coli [14] = experiment: In vitro synergistic activity against Escherichia coli GC6265 (TEM-1); type: functional
Escherichia coli [15] = experiment: In vitro synergistic activity against Escherichia coli 300 + (ampR ampC); type: functional; note: test concentration or dose not given here
Aeromonas sobria = experiment: In vitro synergistic activity against Aeromonas sobria (Asb A, OXA-12, Asb M); type: functional; note: test concentration or dose not given here
Escherichia coli [16] = experiment: In vitro synergistic activity against Escherichia coli 300 + (TEM-1); type: functional
Escherichia coli [17] = experiment: In vitro synergistic activity against Escherichia coli ATCC 35218 (TEM-1); type: functional
Klebsiella pneumoniae [18] = experiment: In vitro synergistic activity against Klebsiella pneumoniae GC 6269 clinical isolate; type: functional; note: test concentration or dose not given here
Pseudomonas aeruginosa = experiment: In vitro synergistic activity against Pseudomonas aeruginosa Ps505A1 (AmpC derepressed); type: functional
Escherichia coli [19] = experiment: In vitro synergistic activity against Escherichia coli 4100 + (CCRA); type: functional
Escherichia coli [20] = experiment: In vitro synergistic activity against Escherichia coli C600N + (IRT-2); type: functional; note: test concentration or dose not given here
Escherichia coli [21] = experiment: In vitro synergistic activity against Escherichia coli 4100 (no beta-lactamase); type: functional
Escherichia coli [22] = experiment: In vitro synergistic activity against Escherichia coli C600N + (PSE-1); type: functional
Klebsiella pneumoniae [23] = experiment: In vitro synergistic activity against Klebsiella pneumoniae (ACT-1 + 3 blas, IPM=S); type: functional; note: test concentration or dose not given here
Escherichia coli [24] = experiment: In vitro synergistic activity against Escherichia coli C600N + (ampR ampC); type: functional; note: test concentration or dose not given here
Serratia marcescens = experiment: In vitro synergistic activity against Serratia marcescens GC 4132 (Amp C); type: functional; note: test concentration or dose not given here
Staphylococcus aureus = experiment: In vitro synergistic activity against Staphylococcus aureus (PC1); type: functional; note: test concentration or dose not given here
Escherichia coli [25] = experiment: In vitro synergistic activity against Escherichia coli C600N + (Sme-1); type: functional
Escherichia coli [26] = experiment: In vitro synergistic activity against Escherichia coli C600N + (TEM-1); type: functional
Escherichia coli [27] = experiment: In vitro synergistic activity against Escherichia coli C600N + (SHV-4); type: functional
Escherichia coli [28] = experiment: In vitro synergistic activity against Escherichia coli C600N + (OXA-10) {PSE-2}; type: functional
Escherichia coli [29] = experiment: In vitro synergistic activity against Escherichia coli C600N + (TEM-10); type: functional
Escherichia coli [30] = experiment: In vitro synergistic activity against Escherichia coli C600N + (SHV-1); type: functional
Escherichia coli [31] = experiment: In vitro synergistic activity against Escherichia coli C600N (no beta-lactamase); type: functional

Sequence of Beta-lactamase TEM (P62593 whole entry): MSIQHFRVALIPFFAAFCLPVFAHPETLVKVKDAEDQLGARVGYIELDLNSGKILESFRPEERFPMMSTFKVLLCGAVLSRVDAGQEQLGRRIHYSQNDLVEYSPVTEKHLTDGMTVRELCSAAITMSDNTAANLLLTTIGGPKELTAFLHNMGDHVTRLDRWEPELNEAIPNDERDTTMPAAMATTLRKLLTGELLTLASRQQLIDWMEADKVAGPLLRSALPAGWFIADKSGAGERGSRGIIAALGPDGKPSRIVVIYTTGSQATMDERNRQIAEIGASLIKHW

C[C@]1(COC(=O)Cc2ccccc2)[C@H](C(=O)O)N2C(=O)/C(=C/C(=O)O)C2S1(=O)=O (stereo partly drawn)
IC50 (Beta-lactamase TEM): 0.0154 µM
IC50 (Beta-lactamase [1]): 0.54 µM
IC50 (Beta-lactamase [2]): 579 µM

COC(=O)/C=C1/C(=O)N2C1S(=O)(=O)[C@@](C)(CCl)[C@@H]2C(=O)O (stereo partly drawn)
IC50 (Beta-lactamase [1]): 13.9 µM
IC50 (Beta-lactamase [2]): 432 µM

Cn1nnnc1SCC(=O)OC[C@@]1(C)[C@H](C(=O)O)N2C(=O)/C(=C/C(=O)O)C2S1(=O)=O (stereo partly drawn)
IC50 (Beta-lactamase TEM): 0.233 µM
IC50 (Beta-lactamase [1]): 0.64 µM

CC(=O)OC[C@@]1(C)[C@H](C(=O)O)N2C(=O)/C(=C/c3ccccn3)C2S1(=O)=O (stereo partly drawn)
IC50 (Beta-lactamase TEM): 0.004 µM
IC50 (Beta-lactamase [1]): 0.062 µM
IC50 (Beta-lactamase [2]): 0.66 µM

C[C@]1(COC(=O)Cc2ccccc2)[C@H](C(=O)O)N2C(=O)/C(=C/c3ccccn3)C2S1(=O)=O (stereo partly drawn)
IC50 (Beta-lactamase TEM): 0.04 µM
IC50 (Beta-lactamase [1]): 0.001 µM
IC50 (Beta-lactamase [2]): 0.39 µM

C[C@]1(COC(=O)Cc2ccc(O)c(O)c2)[C@H](C(=O)[O-])N2C(=O)/C(=C/c3ccccn3)C2S1(=O)=O.[Na+] (stereo partly drawn)
MIC (Enterobacter cloacae [3]): > 64 µg/mL
MIC (Escherichia coli [4]): > 64 µg/mL
MIC (Escherichia coli [5]): > 64 µg/mL
MIC (Escherichia coli [6]): > 64 µg/mL
MIC (Escherichia coli [7]): > 64 µg/mL
MIC (Escherichia coli [8]): > 64 µg/mL
MIC (Klebsiella pneumoniae [9]): > 64 µg/mL
MIC (Klebsiella aerogenes): > 64 µg/mL
MIC (Enterobacter cloacae [10]): > 64 µg/mL
MIC (Escherichia coli [11]): > 64 µg/mL
MIC (Escherichia coli [12]): > 64 µg/mL
MIC [13]: > 64 µg/mL
MIC (Escherichia coli [14]): > 64 µg/mL
MIC (Escherichia coli [15]): > 64 µg/mL
MIC (Aeromonas sobria): > 64 µg/mL
MIC (Escherichia coli [16]): > 64 µg/mL
IC50 (Beta-lactamase TEM): 0.06 µM
MIC (Escherichia coli [17]): > 64 µg/mL
MIC (Klebsiella pneumoniae [18]): > 64 µg/mL
MIC (Pseudomonas aeruginosa): > 64 µg/mL
MIC (Escherichia coli [19]): > 64 µg/mL
MIC (Escherichia coli [20]): > 64 µg/mL
MIC (Escherichia coli [21]): > 64 µg/mL
IC50 (Beta-lactamase [1]): 0.026 µM
MIC (Escherichia coli [22]): > 64 µg/mL
MIC (Klebsiella pneumoniae [23]): > 64 µg/mL
MIC (Escherichia coli [24]): > 64 µg/mL
MIC (Serratia marcescens): > 64 µg/mL
IC50 (Beta-lactamase [2]): 0.7 µM
MIC (Staphylococcus aureus): > 64 µg/mL
MIC (Escherichia coli [25]): > 64 µg/mL

CC(=O)OC[C@@]1(C)[C@H](C(=O)O)N2C(=O)/C(=C/C(N)=O)C2S1(=O)=O (stereo partly drawn)
IC50 (Beta-lactamase TEM): 0.31 µM
IC50 (Beta-lactamase [1]): 8.48 µM
IC50 (Beta-lactamase [2]): 2.21 µM

C[C@]1(COC(=O)Cc2ccc(O)c(O)c2)[C@H](C(=O)O)N2C(=O)/C(=C/C(=O)O)C2S1(=O)=O (stereo partly drawn)
IC50 (Beta-lactamase [1]): 0.37 µM
IC50 (Beta-lactamase [2]): 116 µM

COC(=O)/C=C1/C(=O)N2C1S(=O)(=O)[C@@](C)(COC(=O)CSc1nnnn1C)[C@@H]2C(=O)O (stereo partly drawn)
IC50 (Beta-lactamase TEM): 2.37 µM
IC50 (Beta-lactamase [1]): 13.2 µM
IC50 (Beta-lactamase [2]): 940 µM

C[C@]1(CCl)[C@H](C(=O)O)N2C(=O)/C(=C/C(=O)O)C2S1(=O)=O (stereo partly drawn)
IC50 (Beta-lactamase TEM): 120 µM
IC50 (Beta-lactamase [1]): 527 µM
IC50 (Beta-lactamase [2]): 2100 µM

C[C@]1(/C=C/C#N)[C@H](C(=O)O)N2C(=O)/C(=C/C(=O)O)C2S1(=O)=O (stereo partly drawn)
IC50 (Beta-lactamase TEM): 21.7 µM
IC50 (Beta-lactamase [1]): 6.76 µM
IC50 (Beta-lactamase [2]): 504 µM

CC1(C)[C@H](C(=O)O)N2C(=O)/C(=C/C(=O)O)C2S1(=O)=O (stereo partly drawn)
IC50 (Beta-lactamase TEM): 1.8 µM
IC50 (Beta-lactamase [1]): 4.5 µM
IC50 (Beta-lactamase [2]): 108 µM

C[C@]1(COC=O)[C@H](C(=O)O)N2C(=O)/C(=C/C(=O)O)C2S1(=O)=O (stereo partly drawn)
IC50 (Beta-lactamase [1]): 0.592 µM
IC50 (Beta-lactamase [2]): 173 µM

CC(=O)OC[C@@]1(C)[C@H](C(=O)O)N2C(=O)/C(=C/C(=O)O)C2S1(=O)=O (stereo partly drawn)
IC50 (Beta-lactamase TEM): 0.18 µM
IC50 (Beta-lactamase [1]): 0.708 µM
IC50 (Beta-lactamase [2]): 76.5 µM

COC(=O)/C=C1/C(=O)N2[C@@H](C(=O)O)[C@](C)(COC(C)=O)S(=O)(=O)[C@H]12
IC50 (Beta-lactamase TEM): 2.72 µM
IC50 (Beta-lactamase [1]): 9.51 µM

C[C@]1(COC(=O)CCl)[C@H](C(=O)O)N2C(=O)/C(=C/C(=O)O)[C@H]2S1(=O)=O
IC50 (Beta-lactamase TEM): 0.196 µM
IC50 (Beta-lactamase [2]): 7.2 µM

C[C@@H](O)[C@H]1C(=O)N2C(C(=O)O)=C(SCCNC=N)C[C@H]12 [IMIPENEM ANHYDROUS]
MIC (Enterobacter cloacae [3]): 1 µg/mL
MIC (Escherichia coli [4]): 0.5 µg/mL
MIC (Escherichia coli [5]): 0.12 µg/mL
MIC (Escherichia coli [6]): 2 µg/mL
MIC (Escherichia coli [7]): 0.25 µg/mL
MIC (Escherichia coli [8]): 0.25 µg/mL
MIC (Klebsiella pneumoniae [9]): < 0.06 µg/mL
MIC (Klebsiella aerogenes): 1 µg/mL
MIC (Enterobacter cloacae [10]): > 64 µg/mL
MIC (Escherichia coli [11]): < 0.06 µg/mL
MIC (Escherichia coli [12]): 4 µg/mL
MIC [13]: > 64 µg/mL
MIC (Escherichia coli [14]): < 0.06 µg/mL
MIC (Escherichia coli [26]): 0.12 µg/mL
MIC (Escherichia coli [15]): < 0.06 µg/mL
MIC (Aeromonas sobria): > 64 µg/mL
MIC (Escherichia coli [16]): < 0.06 µg/mL
MIC (Escherichia coli [17]): < 0.06 µg/mL
MIC (Klebsiella pneumoniae [18]): 0.12 µg/mL
MIC (Pseudomonas aeruginosa): 0.5 µg/mL
MIC (Escherichia coli [19]): 16 µg/mL
MIC (Escherichia coli [20]): 0.25 µg/mL
MIC (Escherichia coli [27]): 0.12 µg/mL
MIC (Escherichia coli [21]): 0.12 µg/mL
MIC (Escherichia coli [22]): 0.12 µg/mL
MIC (Escherichia coli [28]): 0.12 µg/mL
MIC (Escherichia coli [29]): 0.12 µg/mL
MIC (Klebsiella pneumoniae [23]): 1 µg/mL
MIC (Escherichia coli [30]): 0.12 µg/mL
MIC (Escherichia coli [24]): 0.5 µg/mL
MIC (Serratia marcescens): 1 µg/mL
MIC (Staphylococcus aureus): < 0.06 µg/mL
MIC (Escherichia coli [25]): 64 µg/mL

CCN1CCN(C(=O)N[C@@H](C(=O)N[C@@H]2C(=O)N3[C@@H]2SC(C)(C)[C@@H]3C(=O)O)c2ccccc2)C(=O)C1=O [PIPERACILLIN]
MIC (Enterobacter cloacae [3]): > 64 µg/mL
MIC (Escherichia coli [4]): 64 µg/mL
MIC (Escherichia coli [5]): > 64 µg/mL
MIC (Escherichia coli [6]): > 64 µg/mL
MIC (Escherichia coli [7]): > 64 µg/mL
MIC (Escherichia coli [8]): > 64 µg/mL
MIC (Klebsiella pneumoniae [9]): > 64 µg/mL
MIC (Klebsiella aerogenes): > 64 µg/mL
MIC (Enterobacter cloacae [10]): > 64 µg/mL
MIC (Escherichia coli [11]): 2 µg/mL
MIC (Escherichia coli [12]): > 64 µg/mL
MIC [13]: > 64 µg/mL
MIC (Escherichia coli [14]): > 64 µg/mL
MIC (Escherichia coli [15]): 16 µg/mL
MIC (Aeromonas sobria): 64 µg/mL
MIC (Escherichia coli [16]): > 64 µg/mL
MIC (Escherichia coli [17]): > 64 µg/mL
MIC (Klebsiella pneumoniae [18]): > 64 µg/mL
MIC (Pseudomonas aeruginosa): > 64 µg/mL
MIC (Escherichia coli [19]): > 64 µg/mL
MIC (Escherichia coli [31]): 2 µg/mL
MIC (Escherichia coli [20]): > 64 µg/mL
MIC (Escherichia coli [21]): < 0.06 µg/mL
MIC (Escherichia coli [22]): 32 µg/mL
MIC (Klebsiella pneumoniae [23]): > 64 µg/mL
MIC (Escherichia coli [30]): 4 µg/mL
MIC (Escherichia coli [24]): > 64 µg/mL
MIC (Serratia marcescens): 64 µg/mL
MIC (Staphylococcus aureus): > 64 µg/mL
MIC (Escherichia coli [25]): > 64 µg/mL
